From patent publication US12371430B2, “5-morpholin-4-yl-pyrazolo[4,3-b]pyridine derivatives” (Merck Patent GmbH, priority 2018, dated 2025)

Assays:
ATR/ATRIP = ATR/ATRIP (Homo sapiens (Human), UniProt Q13535); assay: ATR/ATRIP kinase assay (TR-FRET, p53 Ser15 phosphorylation); format: biochemical; details: 0.5 μM ATP, 50 nM p53
Outline: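 Full-length human ATR/ATRIP co-expressed in mammalian cells (typically 0.3 nM) preincubated with compound 15 min at 22° C, then 50 nM cmyc-p53 and 0.5 μM ATP added for typically 25 min; HEPES pH 8.0 with Mg2+/Mn2+. p53 Ser15 phosphorylation read by HTRF (665/615 ratio); IC50 by nonlinear regression.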

[1] = system: phosphorylation of Chk1 (Ser 345) in HT29 colon adenocarcinoma cells; assay: pCHK1 cellular assay; format: cell-based; details: Homo sapiens, HT-29, hydroxyurea 3 mM, 4 h
Outline: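 HT29 cells plated ≥20 h, then compound (1 nM–30 μM final) with hydroxyurea (3 mM final) added together for 4 h at 37 °C. After MeOH/Triton fixation-permeabilisation, anti-pChk1 immunostaining plus nuclear stain; nuclear pChk1 imaged by confocal high content reader, reported as % positive nuclei.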

[2] = target: Kv11.1 (hERG) ion channel (Homo sapiens (Human), UniProt Q12809); assay: Kv11.1 (hERG) ion channel activity, whole cell patch clamp in HEK293; format: cell-based; details: for Ki: heading: hERG Ki, HEK293 cells stably expressing hERG, patch clamp
Protocol: Kv11.1 (hERG) Ion Channel Activity
In this assay, a potential in vitro effect of test compounds on the Kv11.1 (hERG) ion channel current is investigated which mediates the rapidly activating, delayed rectifier cardiac potassium current (IKr). The assay is performed with a stable Kv11.1 (hERG) transfected human embryonic kidney cell line (HEK293) by whole cell patch clamp technique carried out at room temperature.
The Kv11.1 (hERG) ion channel blocker quinidine is used as reference compound. The effects of the test compounds and quinidine are normalized to the corresponding vehicle control. The whole cell recordings are carried out with an automated patch clamp device Patchliner™, Nanion Technologies, Munich). Hereby the Patch Clamp measurements run on silicate-coated chips with a hole of a defined diameter. Solutions, cell suspension and compounds are applied by a Teflon-laminated pipette needle through microfluidic silicate-laminated channels. Commercial patch clamp amplifiers (EPC10, HEKA Elektronik Dr. Schulze GmbH, Germany) are used for the patch clamp recordings. HEK293 cells stably expressing the hERG gene are held at −80 mV. Steady-state inhibition of Kv11.1 (hERG) potassium current due to test/reference compound application is measured using a pulse pattern with fixed amplitudes: 51 ms/−80 mV, 500 ms/+40 mV, 500 ms/−40 mV, 200 ms/−80 mV. The hERG-specific voltage protocol is repeated at 10 s intervals. The leak current is subtracted by a P4 leak subtraction. Cells are resuspended in extracellular patch clamp solution (EC) and applied into the chip. After trapping the cell, the EC is exchanged by seal enhancer solution (SE) to improve the sealing procedure. When the whole cell configuration is attained, seal enhancer is washed out by the application of EC. The recording is started in EC for 1.5 min. Afterwards DMSO (vehicle control, 0.1% DMSO) is applied and the control current is measured for 3 min. Following control steady-state current, test compound is applied twice at the same concentration and the tail current is measured for 3.5 min each. For the determination of a concentration-relationship, the test compound is applied as a cumulative concentration-response curve and each concentration is measured for 5 min. The reference compound quinidine is treated in the same way. The effect on Kv11.1 (hERG) ion channel activity is judged from the tail current amplitude monitored at −40 mV (current of interest, COI). Results are calculated from the last recorded current traces. Changes in Kv11.1 (hERG) ion channel activity between control value, defined as 100% Kv11.1 (hERG) ion channel activity, application of test compound and application of quinidine is reported as percent change of control value of COI. An aliquot of test compound is collected for concentration verification during the recording. The sample is immediately measured by HPLC and the final compound concentration within the assay is calculated according to a calibration curve.

Chain of Kv11.1 (hERG) ion channel (Q12809 whole entry): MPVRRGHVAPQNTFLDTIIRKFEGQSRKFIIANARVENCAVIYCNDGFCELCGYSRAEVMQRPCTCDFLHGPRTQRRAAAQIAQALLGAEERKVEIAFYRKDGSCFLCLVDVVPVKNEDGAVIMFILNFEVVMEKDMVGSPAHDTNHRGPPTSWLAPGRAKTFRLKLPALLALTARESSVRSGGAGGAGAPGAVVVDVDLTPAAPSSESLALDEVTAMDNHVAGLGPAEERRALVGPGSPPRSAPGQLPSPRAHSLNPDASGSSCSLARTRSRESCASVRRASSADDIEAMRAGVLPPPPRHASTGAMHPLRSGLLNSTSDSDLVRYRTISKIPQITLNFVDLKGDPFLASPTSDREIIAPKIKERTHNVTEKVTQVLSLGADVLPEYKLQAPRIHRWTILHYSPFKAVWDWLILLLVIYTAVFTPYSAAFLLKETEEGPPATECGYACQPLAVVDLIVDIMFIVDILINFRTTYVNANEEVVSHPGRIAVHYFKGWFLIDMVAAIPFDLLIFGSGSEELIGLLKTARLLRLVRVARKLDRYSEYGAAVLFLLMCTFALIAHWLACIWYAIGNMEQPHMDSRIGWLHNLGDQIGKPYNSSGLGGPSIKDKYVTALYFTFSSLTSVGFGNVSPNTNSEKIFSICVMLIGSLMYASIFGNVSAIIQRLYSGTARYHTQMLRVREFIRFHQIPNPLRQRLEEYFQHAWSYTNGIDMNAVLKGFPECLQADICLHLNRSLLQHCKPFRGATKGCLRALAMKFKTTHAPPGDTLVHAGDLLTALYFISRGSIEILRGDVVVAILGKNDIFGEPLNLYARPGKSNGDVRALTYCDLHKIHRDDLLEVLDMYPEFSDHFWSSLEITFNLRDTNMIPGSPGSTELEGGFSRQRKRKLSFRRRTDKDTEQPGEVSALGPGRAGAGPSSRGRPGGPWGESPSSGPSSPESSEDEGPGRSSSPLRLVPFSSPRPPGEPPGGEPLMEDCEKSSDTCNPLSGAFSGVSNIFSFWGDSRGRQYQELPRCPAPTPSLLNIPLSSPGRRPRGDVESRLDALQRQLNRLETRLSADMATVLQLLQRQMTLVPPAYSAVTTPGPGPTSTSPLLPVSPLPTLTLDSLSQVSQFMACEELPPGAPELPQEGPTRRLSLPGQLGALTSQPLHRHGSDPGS
Chain of ATR/ATRIP (Q13535 whole entry): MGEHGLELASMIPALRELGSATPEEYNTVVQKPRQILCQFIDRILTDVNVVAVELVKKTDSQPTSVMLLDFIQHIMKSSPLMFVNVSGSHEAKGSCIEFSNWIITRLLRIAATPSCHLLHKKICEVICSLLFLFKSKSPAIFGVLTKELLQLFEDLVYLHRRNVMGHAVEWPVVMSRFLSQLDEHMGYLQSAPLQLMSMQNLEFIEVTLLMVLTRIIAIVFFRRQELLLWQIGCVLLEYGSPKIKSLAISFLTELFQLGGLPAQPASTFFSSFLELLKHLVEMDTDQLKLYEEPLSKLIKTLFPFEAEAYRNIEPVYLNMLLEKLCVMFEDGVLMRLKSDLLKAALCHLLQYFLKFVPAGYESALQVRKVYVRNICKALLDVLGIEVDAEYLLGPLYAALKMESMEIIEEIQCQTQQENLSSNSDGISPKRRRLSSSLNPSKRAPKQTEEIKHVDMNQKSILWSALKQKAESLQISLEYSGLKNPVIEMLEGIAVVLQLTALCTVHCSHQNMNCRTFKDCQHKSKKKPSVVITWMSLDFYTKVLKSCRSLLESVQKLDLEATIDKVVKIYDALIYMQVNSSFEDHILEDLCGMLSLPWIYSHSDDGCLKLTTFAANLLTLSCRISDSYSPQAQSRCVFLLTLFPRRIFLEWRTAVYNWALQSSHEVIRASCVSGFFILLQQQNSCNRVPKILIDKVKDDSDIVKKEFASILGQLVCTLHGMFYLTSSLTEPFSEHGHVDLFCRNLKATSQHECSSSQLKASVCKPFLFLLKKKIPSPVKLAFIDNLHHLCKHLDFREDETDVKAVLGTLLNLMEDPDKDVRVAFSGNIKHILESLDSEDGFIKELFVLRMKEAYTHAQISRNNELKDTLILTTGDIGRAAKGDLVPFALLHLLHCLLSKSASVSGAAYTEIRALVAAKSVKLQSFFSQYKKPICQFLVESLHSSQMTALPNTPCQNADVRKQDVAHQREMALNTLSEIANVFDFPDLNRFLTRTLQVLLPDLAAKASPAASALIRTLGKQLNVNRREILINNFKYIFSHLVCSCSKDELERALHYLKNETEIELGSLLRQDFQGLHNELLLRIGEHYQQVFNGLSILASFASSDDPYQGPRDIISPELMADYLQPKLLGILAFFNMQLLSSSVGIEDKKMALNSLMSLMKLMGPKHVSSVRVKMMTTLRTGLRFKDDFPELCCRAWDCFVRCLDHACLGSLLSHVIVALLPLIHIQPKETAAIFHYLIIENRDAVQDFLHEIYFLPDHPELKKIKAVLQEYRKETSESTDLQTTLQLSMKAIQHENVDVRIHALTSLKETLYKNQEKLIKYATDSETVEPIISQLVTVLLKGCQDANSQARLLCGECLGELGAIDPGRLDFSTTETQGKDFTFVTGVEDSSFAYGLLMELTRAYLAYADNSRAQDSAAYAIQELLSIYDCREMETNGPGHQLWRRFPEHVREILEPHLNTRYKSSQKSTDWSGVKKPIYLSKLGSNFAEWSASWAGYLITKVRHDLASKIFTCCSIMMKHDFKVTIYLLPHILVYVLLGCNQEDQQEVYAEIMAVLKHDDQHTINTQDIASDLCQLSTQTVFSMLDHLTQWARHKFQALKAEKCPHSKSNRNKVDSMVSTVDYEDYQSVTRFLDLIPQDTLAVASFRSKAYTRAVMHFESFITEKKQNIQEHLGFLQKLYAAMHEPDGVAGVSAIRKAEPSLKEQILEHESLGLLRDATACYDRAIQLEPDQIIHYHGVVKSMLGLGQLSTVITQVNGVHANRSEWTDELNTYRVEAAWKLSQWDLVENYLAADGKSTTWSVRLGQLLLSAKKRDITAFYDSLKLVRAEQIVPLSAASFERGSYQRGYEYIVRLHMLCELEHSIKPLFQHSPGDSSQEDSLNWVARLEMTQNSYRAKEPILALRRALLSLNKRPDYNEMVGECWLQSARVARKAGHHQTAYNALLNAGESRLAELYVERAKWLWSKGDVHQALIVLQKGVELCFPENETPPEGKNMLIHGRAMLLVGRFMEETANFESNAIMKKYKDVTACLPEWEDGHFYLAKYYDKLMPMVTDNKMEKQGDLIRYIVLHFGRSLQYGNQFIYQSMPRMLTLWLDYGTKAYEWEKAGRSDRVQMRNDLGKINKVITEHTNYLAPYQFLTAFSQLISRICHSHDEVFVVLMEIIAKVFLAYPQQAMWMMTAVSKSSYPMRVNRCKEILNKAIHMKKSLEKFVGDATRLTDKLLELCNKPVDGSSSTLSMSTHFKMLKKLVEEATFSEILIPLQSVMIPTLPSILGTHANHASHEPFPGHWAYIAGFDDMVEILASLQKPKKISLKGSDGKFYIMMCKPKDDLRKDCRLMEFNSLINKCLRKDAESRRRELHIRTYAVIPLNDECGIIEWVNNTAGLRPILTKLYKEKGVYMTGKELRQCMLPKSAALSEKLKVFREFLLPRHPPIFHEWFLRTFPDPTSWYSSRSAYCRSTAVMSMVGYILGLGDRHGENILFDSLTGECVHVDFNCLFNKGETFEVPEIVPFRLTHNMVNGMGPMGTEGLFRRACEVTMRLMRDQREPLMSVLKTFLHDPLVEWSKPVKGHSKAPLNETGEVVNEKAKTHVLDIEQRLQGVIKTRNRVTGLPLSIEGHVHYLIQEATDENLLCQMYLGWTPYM
Chain of ATR/ATRIP (Q8WXE1 whole entry partner): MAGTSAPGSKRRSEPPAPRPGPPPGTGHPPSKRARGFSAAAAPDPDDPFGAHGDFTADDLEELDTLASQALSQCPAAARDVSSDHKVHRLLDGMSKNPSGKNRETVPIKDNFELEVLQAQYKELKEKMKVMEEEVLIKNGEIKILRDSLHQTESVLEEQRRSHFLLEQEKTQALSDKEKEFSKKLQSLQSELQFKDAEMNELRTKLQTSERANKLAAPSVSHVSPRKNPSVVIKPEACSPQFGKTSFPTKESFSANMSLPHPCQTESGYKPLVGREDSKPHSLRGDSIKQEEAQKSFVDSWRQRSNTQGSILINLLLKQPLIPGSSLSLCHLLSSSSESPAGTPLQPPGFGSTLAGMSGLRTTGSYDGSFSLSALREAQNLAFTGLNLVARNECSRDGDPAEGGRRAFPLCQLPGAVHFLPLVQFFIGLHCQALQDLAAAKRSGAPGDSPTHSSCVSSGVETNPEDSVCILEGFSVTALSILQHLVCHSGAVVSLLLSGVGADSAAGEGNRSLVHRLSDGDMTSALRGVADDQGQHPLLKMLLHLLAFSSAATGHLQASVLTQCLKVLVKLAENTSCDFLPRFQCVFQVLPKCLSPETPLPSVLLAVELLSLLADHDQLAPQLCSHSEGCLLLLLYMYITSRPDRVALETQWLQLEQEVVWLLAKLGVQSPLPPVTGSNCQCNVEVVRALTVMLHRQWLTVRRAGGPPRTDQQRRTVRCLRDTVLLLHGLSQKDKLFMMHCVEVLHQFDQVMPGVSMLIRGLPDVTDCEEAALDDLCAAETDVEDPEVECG

Row | Structure (SMILES) | IC50 (ATR/ATRIP) [nM] | IC50 [1] [nM] | hERG % effect @ conc ([2]; @ 10 μM) [%] | Ki [2] [nM] | hERG % effect @ conc ([2]; @ 30 μM) [%]
1 | C[C@@H]1COCCN1c1ccc2c(n1)c(-c1ccn[nH]1)nn2C [Compound 40, (3R)-3-Methyl-4-[1-methyl-3-(1H-pyrazol-5-yl)-1H-pyrazolo[4,3-b]pyridin-5-yl]morpholine] | 50.6 | 100 to 1000 | 9 | > 10000 | 
2 | C[C@@H]1COCCN1c1cc(-c2cccc(C#N)c2)c2c(n1)c(-c1cc[nH]n1)nn2C [Compound 48, 3-{1-Methyl-5-[(3R)-3-methylmorpholin-4-yl]-3-(1H-pyrazol-3-yl)-1H-pyrazolo[4,3-b]pyridin-7-yl}benzonitrile] | 2 | 10 to 100 | −32 | > 10000 | 
3 | Cc1ccccc1-c1cc(N2CCOC[C@H]2C)nc2c(-c3ccn[nH]3)nn(C)c12 [Compound 49, (3R)-3-Methyl-4-[1-methyl-7-(2-methylphenyl)-3-(1H-pyrazol-5-yl)-1H-pyrazolo[4,3-b]pyridin-5-yl]morpholine] | 1.8 | 10 to 100 | −18 | > 10000 | 
4 | Cc1cc(S(C)(=O)=O)ccc1-c1cc(N2CCOC[C@H]2C)nc2c(-c3cc[nH]n3)nn(C)c12 [Compound 50, (3R)-4-[7-(4-Methanesulfonyl-2-methylphenyl)-1-methyl-3-(1H-pyrazol-3-yl)-1H-pyrazolo[4,3-b]pyridin-5-yl]-3-methylmorpholine] | 1.3 | < 10 | −17 | > 10000 | 
5 | C[C@@H]1COCCN1c1cc(C2=CCOCC2)c2c(n1)c(-c1cc[nH]n1)nn2C [Compound 54, (3R)-4-[7-(3,6-Dihydro-2H-pyran-4-yl)-1-methyl-3-(1H-pyrazol-3-yl)-1H-pyrazolo[4,3-b]pyridin-5-yl]-3-methylmorpholine] | 2.2 | 10 to 100 | −2 | > 10000 | 
6 | C[C@@H]1COCCN1c1cc(C2CCOCC2)c2c(n1)c(-c1ccn[nH]1)nn2C [Compound 55, 1-Methyl-5-((R)-3-methyl-morpholin-4-yl)-3-(2H-pyrazol-3-yl)-7-(tetrahydro-pyran-4-yl)-1H-pyrazolo[4,3-b]pyridine] | 0.7 | 10 to 100 | −14 | > 10000 | 
7 | C[C@@H]1COCCN1c1cc(C2CCCOC2)c2c(n1)c(-c1ccn[nH]1)nn2C (stereo partly drawn) [Compound 67, 1-Methyl-5-((R)-3-methyl-morpholin-4-yl)-3-(2H-pyrazol-3-yl)-7-(tetrahydro-pyran-3-yl)-1H-pyrazolo[4,3-b]pyridine] | 0.8 | 10 to 100 | −12 | > 10000 | 
8 | C[C@@H]1COCCN1c1cc(C2CCOC2)c2c(n1)c(-c1ccn[nH]1)nn2C (stereo partly drawn) [Compound 70, 1-Methyl-5-((R)-3-methyl-morpholin-4-yl)-3-(2H-pyrazol-3-yl)-7-(tetrahydro-furan-3-yl)-1H-pyrazolo[4,3-b]pyridine] | 2.2 | 10 to 100 | −20 | > 10000 | 

Compounds with a lower IC50 (ATR/ATRIP), results first:

Row | IC50 (ATR/ATRIP) [nM] | IC50 [1] [nM] | Structure (SMILES) | hERG % effect @ conc ([2]; @ 10 μM) [%] | Ki [2] [nM] | hERG % effect @ conc ([2]; @ 30 μM) [%]
9 | 0.5 | 10 to 100 | Cc1ccccc1-c1cc(N2CCOC[C@H]2C)nc2c(-c3cc[nH]n3)n[nH]c12 [Compound 35, (3R)-3-Methyl-4-[7-(2-methylphenyl)-3-(1H-pyrazol-3-yl)-1H-pyrazolo[4,3-b]pyridin-5-yl]morpholine] | −23 | > 10000 | 
10 | 0.6 | 10 to 100 | C[C@@H]1COCCN1c1cc(-c2ccnn2CCF)c2c(n1)c(-c1cc[nH]n1)nn2C [Compound 36, 7-[2-(2-Fluoro-ethyl)-2H-pyrazol-3-yl]-1-methyl-5-((R)-3-methyl-morpholin-4-yl)-3-(1H-pyrazol-3-yl)-1H-pyrazolo[4,3-b]pyridine] | −9 | > 10000 | 
11 | 0.3 | < 10 | C[C@@H]1COCCN1c1cc(-c2cncn2C)c2c(n1)c(-c1cc[nH]n1)nn2C [Compound 42, 1-Methyl-7-(3-methyl-3H-imidazol-4-yl)-5-((R)-3-methyl-morpholin-4-yl)-3-(1H-pyrazol-3-yl)-1H-pyrazolo[4,3-b]pyridine] |  | > 30000 | −26
12 | 0.6 | 10 to 100 | C[C@@H]1COCCN1c1cc(-c2ccnn2C)c2c(n1)c(-c1cc[nH]n1)nn2C [Compound 61, (3R)-3-Methyl-4-[1-methyl-7-(1-methyl-1H-pyrazol-5-yl)-3-(1H-pyrazol-3-yl)-1H-pyrazolo[4,3-b]pyridin-5-yl]morpholine] |  | > 30000 | −12
